The source of these data is patent US9556190B2, “Piperidinyloxy lactone orexin receptor antagonists” (MERCK SHARP & DOHME CORP., priority 2013, dated 2017).

One assay deals with hOX1R (Homo sapiens, UniProt O43613). In words: FLIPR Ca2+ Flux Assay, CHO cells expressing orexin-1 receptor. Type of assay: cell-based. To be noted: 70 pM Ala-6,12 orexin-A agonist. On the technique in general: Calcium assays in cells follow changes in intracellular calcium, usually with a dye or a luminescent sensor.
The next assay concerns the target human orexin-2 receptor (Homo sapiens (Human), UniProt O43614). In words: FLIPR Ca2+ Flux Assay, CHO cells expressing orexin-2 receptor. It is filed as cell-based. To be noted: 70 pM Ala-6,12 orexin-A agonist, read-out: hOX2R FLIPR IC50. How it is done: The utility of the compounds in accordance with the present invention as orexin receptor OX1R and/or OX2R antagonists may be readily determined without undue experimentation by methodology well known in the art, including the “FLIPR Ca^2+ Flux Assay” (Okumura et al., Biochem. Biophys. Res. Comm. 280:976-981, 2001). In a typical experiment the OX1 and OX2 receptor antagonistic activity of the compounds of the present invention was determined in accordance with the following experimental method. For intracellular calcium measurements, Chinese hamster ovary (CHO) cells expressing the rat orexin-1 receptor or the human orexin-2 receptor, are grown in Iscove's modified DMEM containing 2 mM L-glutamine, […], 1% hypoxanthine-thymidine supplement, 100 U/ml penicillin, 100 μg/ml streptomycin and 10% heat-inactivated fetal calf serum (FCS). The cells are seeded at 20,000 cells/well into Becton-Dickinson black 384-well clear bottom sterile plates coated with poly-D-lysine. All reagents were from GIBCO-Invitrogen Corp. The seeded plates are incubated overnight at 37° C. and 5% CO2. Ala-6,12 human orexin-A as the agonist is prepared as a 1 mM stock solution in 1% bovine serum albumin (BSA) and diluted in assay buffer (HBSS containing 20 mM HEPES, 0.1% BSA and 2.5 mM probenecid, pH7.4) for use in the assay at a final concentration of 70 pM. Test compounds are prepared as 10 mM stock solution in DMSO, then diluted in 384-well plates, first in DMSO, then assay buffer. On the day of the assay, cells are washed 3 times with 100 μl assay buffer and then incubated for 60 min (37° C., 5% CO2) in 60 μl assay buffer containing 1 μM Fluo-4AM ester, 0.02% pluronic acid, and 1% BSA. The dye loading solution is then aspirated and cells are washed 3 times with 100 μl assay buffer. 30 μl of that same buffer is left in each well. Within the Fluorescent Imaging Plate Reader (FLIPR, Molecular Devices), test compounds are added to the plate in a volume of 25 μl, incubated for 5 min and finally 25 μl of agonist is added. Fluorescence is measured for each well at 1 second intervals for 5 minutes and the height of each fluorescence peak is compared to the height of the fluorescence peak induced by 70 pM Ala-6,12 orexin-A with buffer in place of antagonist. For each antagonist, IC50 value (the concentration of compound needed to inhibit 50% of the agonist response) is determined. Alternatively, compound potency can be assessed by a radioligand binding assay (described in Bergman et. al. Bioorg. Med. Chem. Lett. 2008, 18, 1425-1430) in which the inhibition constant (Ki) is determined in membranes prepared from CHO cells expressing either the OX1 or OX2 receptor. The intrinsic orexin receptor antagonist activity of a compound which may be used in the present invention may be determined by these assays.

A value given as a limit tells only on which side of the number the result lay.

Chain of human orexin-2 receptor (O43614 whole entry): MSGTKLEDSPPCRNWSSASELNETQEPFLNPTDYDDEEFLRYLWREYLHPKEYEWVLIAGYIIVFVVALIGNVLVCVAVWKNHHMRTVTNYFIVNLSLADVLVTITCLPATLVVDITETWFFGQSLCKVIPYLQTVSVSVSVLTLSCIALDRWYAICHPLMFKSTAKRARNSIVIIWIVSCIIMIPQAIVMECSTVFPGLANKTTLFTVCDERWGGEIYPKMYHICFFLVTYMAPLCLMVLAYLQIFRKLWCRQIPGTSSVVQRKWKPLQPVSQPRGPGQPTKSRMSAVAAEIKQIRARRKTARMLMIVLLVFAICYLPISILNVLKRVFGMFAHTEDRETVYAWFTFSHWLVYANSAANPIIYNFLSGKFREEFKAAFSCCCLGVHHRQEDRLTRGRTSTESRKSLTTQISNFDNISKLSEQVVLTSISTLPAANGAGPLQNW

Turning to `C[C@@H]1OC(=O)c2c1ccnc2N[C@@H]1CC[C@@H](C)N(C(=O)c2ccccc2-n2nccn2)C1` [Example 46, (1S)-1-methyl-4-{[(3R,6R)-6-methyl-1-{[2-(2H-1,2,3-triazol-2-yl)phenyl]carbonyl}piperidin-3-yl]amino}furo[3,4-c]pyridin-3(1H)-one], the IC50 (in general, the concentration that inhibits the measured activity by half) on hOX1R was ≥ 10 µM; on human orexin-2 receptor, 0.028 µM.

In the case of `C[C@@H]1CC[C@@H](Oc2nccc3c2COC3=O)CN1C(=O)c1ccc(F)cc1-n1nccn1` [Example 32, 4-{[(3R,6R)-1-{[4-fluoro-2-(2H-1,2,3-triazol-2-yl)phenyl]-carbonyl}-6-methyl-piperidin-3-yl]oxy}furo[3,4-c]pyridin-1(3H)-one], the IC50 on hOX1R is 8.29 µM; at human orexin-2 receptor, 0.015 µM.

Turning to `C[C@@H]1CC[C@@H](Oc2nccc3c2COC3=O)CN1C(=O)c1ccccc1CS(C)(=O)=O` [Example 33, 4-{[(3R,6R)-6-methyl-1-({2-[(methyl-sulfonyl)methyl]-phenyl}carbonyl)-piperidin-3-yl]oxy}furo[3,4-c]pyridin-1(3H)-one], the results for the half-maximal inhibitory concentration (IC50) on hOX1R and at human orexin-2 receptor were ≥ 10 µM and 0.02 µM, respectively.

As for `C[C@@H]1CC[C@@H](Oc2nccc3c2C(=O)OC3(C)C)CN1C(=O)c1ccc(F)cc1-n1nccn1` [Example 10, 4-{[(3R,6R)-1-{[4-fluoro-2-(2H-1,2,3-triazol-2-yl)phenyl]carbonyl}-6-methylpiperidin-3-yl]oxy}-1,1-dimethylfuro[3,4-c]pyridin-3(1H)-one], the 50% inhibitory concentration (IC50) at hOX1R was 10 µM; at human orexin-2 receptor it was 0.059 µM.

With `C[C@@H]1CC[C@@H](Oc2nccc3c2COC3=O)CN1C(=O)c1ccccc1C1(C#N)CC1` [Example 31, 1-[2-({(2R,5R)-2-methyl-5-[(1-oxo-1,3-dihydrofuro[3,4-c]pyridin-4-yl)oxy]-piperidin-1-yl}-carbonyl)-phenyl]cyclo-propane-carbonitrile], the half-maximal inhibitory concentration (IC50) worked out at 1.78 µM on hOX1R and 0.012 µM at human orexin-2 receptor.

On to `Cc1noc(-c2cc(F)ccc2C(=O)N2C[C@H](Oc3nccc4c3C(=O)OC4(C)C)CC[C@H]2C)n1` [Example 19, 4-{[(3R,6R)-1-{[4-fluoro-2-(3-methyl-1,2,4-oxadiazol-5-yl)phenyl]carbonyl}-6-methylpiperidin-3-yl]oxy}-1,1-dimethylfuro[3,4-c]pyridin-3(1H)-one], for which the IC50 on hOX1R turned out to be 10 µM; at human orexin-2 receptor, 0.382 µM.

For `C[C@@H]1CC[C@@H](Oc2nccc3c2C(=O)OC3(C)C)CN1C(=O)c1ccc(F)cc1-c1ncccn1` [Example 23, 4-({(3R,6R)-1-[(4-fluoro-2-pyrimidin-2-ylphenyl)carbonyl]-6-methylpiperidin-3-yl}oxy)-1,1-dimethylfuro[3,4-c]pyridin-3(1H)-one], the half-inhibitory concentration (IC50) on hOX1R came to 10 µM; at human orexin-2 receptor it was 0.42 µM.

Consider `C[C@@H]1CC[C@@H](Oc2nccc3c2COC3=O)CN1C(=O)c1ccccc1-c1ncccn1` [Example 36, 4-({(3R,6R)-6-methyl-1-[(2-pyrimidin-2-ylphenyl)car-bonyl]piperidin-3-yl}oxy)furo[3,4-c]pyridin-1(3H)-one], for which the IC50 on hOX1R stood at 3.1 µM; at human orexin-2 receptor, 0.02 µM.

With `C[C@@H]1CC[C@@H](Oc2nccc3c2C(=O)OC3(C)C)CN1C(=O)c1c(F)cccc1-c1ncccn1` [Example 26, 4-({(3R,6R)-1-[(2-fluoro-6-pyrimidin-2-ylphenyl)carbonyl]-6-methylpiperidin-3-yl}oxy)-1,1-dimethylfuro[3,4-c]pyridin-3(1H)-one], the half-maximal inhibitory concentration (IC50) was found to be 10 µM on hOX1R and 0.109 µM on human orexin-2 receptor.

As for `C[C@@H]1CC[C@@H](Oc2nccc3c2C(=O)OC3(C)C)CN1C(=O)c1cccc(F)c1-c1ncccn1` [Example 27, 4-({(3R,6R)-1-[(3-fluoro-2-pyrimidin-2-ylphenyl)carbonyl]-6-methylpiperidin-3-yl}oxy)-1,1-dimethylfuro[3,4-c]pyridin-3(1H)-one], the IC50 at hOX1R worked out at 10 µM; at human orexin-2 receptor, 0.139 µM.

Regarding `C[C@@H]1CC[C@@H](Nc2nccc3c2C(=O)OC3(C)C)CN1C(=O)c1ccccc1-n1nccn1` [Example 39, 1,1-Dimethyl-4-{[(3R,6R)-6-methyl-1-{[2-(2H-1,2,3-triazol-2-yl)phenyl]carbonyl}piperidin-3-yl]amino}furo[3,4-c]pyridin-3(1H)-one], the IC50 at hOX1R was 5.88 µM; on human orexin-2 receptor it was 0.049 µM.

Consider `Cc1nc(-c2cccc(F)c2C(=O)N2C[C@H](Oc3nccc4c3C(=O)OC4(C)C)CC[C@H]2C)no1` [Example 13, 4-{[(3R,6R)-1-{[2-fluoro-6-(5-methyl-1,2,4-oxadiazol-3-yl)phenyl]carbonyl}-6-methylpiperidin-3-yl]oxy}-1,1-dimethylfuro[3,4-c]pyridin-3(1H)-one], for which the concentration for half-maximal inhibition (IC50) at hOX1R is ≥ 10 µM; at human orexin-2 receptor, 0.065 µM.

Regarding `C[C@@H]1CC[C@@H](Nc2nccc3c2C(=O)O[C@@H]3C)CN1C(=O)c1ccccc1-n1nccn1` [Example 47, (1R)-1-methyl-4-{[(3R,6R)-6-methyl-1-{[2-(2H-1,2,3-triazol-2-yl)phenyl]carbonyl}piperidin-3-yl]amino}furo[3,4-c]pyridin-3(1H)-one], the half-inhibitory concentration (IC50) on hOX1R was 7.26 µM; on human orexin-2 receptor, 0.035 µM.

On to `C[C@@H]1CC[C@@H](Nc2nccc3c2C(=O)OC3(C)C)CN1C(=O)c1ccccc1-c1ncccn1` [Example 42, 1,1-dimethyl-4-({(3R,6R)-6-methyl-1-[(2-pyrimidin-2-ylphenyl)carbonyl]-piperidin-3-yl}amino)furo[3,4-c]pyridin-3(1H)-one], for which the values for the IC50 at hOX1R and on human orexin-2 receptor were 2.86 µM and 0.026 µM, respectively.

Take `C[C@@H]1CC[C@@H](Oc2nccc3c2COC3=O)CN1C(=O)c1ccsc1-n1nccn1` [Example 29, 4-{[(3R,6R)-6-methyl-1-{[2-(2H-1,2,3-triazol-2-yl)thiophen-3-yl]carbonyl}piperidin-3-yl]oxy}furo[3,4-c]pyridin-1(3H)-one]: the IC50 on hOX1R came to 3.16 µM; on human orexin-2 receptor it was 0.016 µM.

`C[C@@H]1CC[C@@H](Oc2nccc3c2COC3=O)CN1C(=O)c1cscc1-c1ncccn1` [Example 35, 4-({(3R,6R)-6-methyl-1-[(4-pyrimidin-2-ylthiophen-3-yl)carbonyl]piperidin-3-yl}oxy)furo[3,4-c]pyridin-1(3H)-one]: the values for the half-inhibitory concentration (IC50) on hOX1R and at human orexin-2 receptor were 10 µM and 0.02 µM, respectively.

`Cc1noc(-c2ccc(F)cc2C(=O)N2C[C@H](Oc3nccc4c3C(=O)OC4(C)C)CC[C@H]2C)n1` [Example 18, 4-{[(3R,6R)-1-{[5-fluoro-2-(3-methyl-1,2,4-oxadiazol-5-yl)phenyl]carbonyl}-6-methylpiperidin-3-yl]oxy}-1,1-dimethylfuro[3,4-c]pyridin-3(1H)-one]: the concentration for half-maximal inhibition (IC50) at hOX1R worked out at 10 µM; at human orexin-2 receptor, 0.09 µM.

In the case of `C[C@@H]1CC[C@@H](Oc2nccc3c2C(=O)OC3(C)C)CN1C(=O)c1c(F)cccc1-n1nccn1` [Example 2, 4-{[(3R,6R)-1-{[2-Fluoro-6-(2H-1,2,3-triazol-2-yl)phenyl]carbonyl}-6-methylpiperidin-3-yl]oxy}-1,1-dimethylfuro[3,4-c]pyridin-3(1H)-one], the IC50 on hOX1R turned out to be 10 µM; on human orexin-2 receptor it was 0.044 µM.

As to `C[C@@H]1CC[C@@H](Oc2nccc3c2C(=O)OC3(C)C)CN1C(=O)c1ccccc1-n1ncnn1` [Example 21, 1,1-Dimethyl-4-{[(3R,6R)-6-methyl-1-{[2-(2H-tetrazol-2-yl)phenyl]carbonyl}piperidin-3-yl]oxy}furo[3,4-c]pyridin-3(1H)-one], the results for the concentration for half-maximal inhibition (IC50) on hOX1R and on human orexin-2 receptor were 10 µM and 0.109 µM, respectively.

With `C[C@@H]1CC[C@@H](Oc2nccc3c2C(=O)OC3(C)C)CN1C(=O)c1cc(Cl)ccc1-n1nccn1` [Example 3, 4-{[(3R,6R)-1-{[5-chloro-2-(2H-1,2,3-triazol-2-yl)phenyl]carbonyl}-6-methylpiperidin-3-yl]oxy}-1,1-dimethylfuro[3,4-c]pyridin-3(1H)-one], the IC50 worked out at 3.74 µM on hOX1R and 0.042 µM at human orexin-2 receptor.

Consider `C[C@@H]1CC[C@@H](Oc2nccc3c2COC3=O)CN1C(=O)c1ccccc1-n1ncnn1` [Example 34, 4-{[(3R,6R)-6-methyl-1-{[2-(2H-tetrazol-2-yl)phenyl]carbonyl}-piperidin-3-yl]oxy}-furo[3,4-c]pyridin-1(3H)-one], for which the figures for the IC50 at hOX1R and at human orexin-2 receptor were 10 µM and 0.03 µM, respectively.
